Assay results from patent US8129106B2, “Sequence-specific detection of methylation in biomolecules” (priority 2004, dated 2012).
Read-outs that look alike come from different tables or passages of the source.

Key:
[1] = molecular target: T1, M.HhaI (Haemophilus parahaemolyticus, UniProt P05102); experiment: M.HhaI-catalysed coupling of biotinylated aziridine cofactors with duplex oligodeoxynucleotide I-II (anion exchange HPLC); format: biochemical, Haemophilus haemolyticus; settings: for conversion of duplex I-II to coupling product (protein-DNA complex): cofactor 80 μM, duplex I-II 10 μM, M.HhaI 11 μM, 37° C., after 3 h (1), 1.5 h (2), 6.25 h (3)
T1 sequence (P05102 whole entry): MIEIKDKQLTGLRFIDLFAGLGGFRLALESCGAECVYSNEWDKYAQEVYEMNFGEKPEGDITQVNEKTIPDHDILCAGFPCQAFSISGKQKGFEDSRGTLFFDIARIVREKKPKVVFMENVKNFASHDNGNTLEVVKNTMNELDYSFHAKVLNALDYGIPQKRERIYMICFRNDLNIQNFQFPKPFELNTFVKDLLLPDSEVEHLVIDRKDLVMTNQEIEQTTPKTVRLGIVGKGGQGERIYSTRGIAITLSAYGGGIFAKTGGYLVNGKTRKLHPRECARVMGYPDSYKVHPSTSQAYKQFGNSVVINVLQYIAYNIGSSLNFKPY
Description: Solutions (400 μL) of aziridine cofactor 1, 2 or 3 (32 nmol, 80 μM), duplex oligodeoxynucleotide I-II (4 nmol, 10 μM) and M.HhaI (4.4 nmol, 11 μM) in buffer (10 mM Tris hydrochloride, pH 7.4, 50 mM sodium chloride, 0.05 mM ethylene-diaminetetraacetic acid and 2 mM β-mercaptoethanol) were incubated at 37° C. The progress of the coupling reactions was monitored by anion exchange HPLC (Poros 10 HQ, 10 μm, 4.6×10 mm, Applied Biosystems). Compounds were eluted with aqueous potassium chloride (0.2 M for 5 min, followed by linear gradients to 0.4 M in 5 min, to 0.6 M in 20 min and to 1 M in 5 min) in Tris hydrochloride buffer (10 mM, pH 7.6) at a flow of 4 mL/min. […] These new compounds are assigned to non-covalent protein-DNA complexes between M.HhaI and the coupling products I^1-II, I^2-II and I^3-II based on their UV absorption ratio at 260 nm and 280 nm.
The presence and functionality of biotin groups in I^1-II, I^2-II and I^3-II were verified by addition of streptavidin. Residual aziridine cofactors 1, 2 or 3 were first removed from the labelled duplexes I^1-II, I^2-II or I^3-II by gel filtration using NAP-5 columns (Amersham Biosciences, Freiburg, Germany) according to the instructions of the supplier. Afterwards, streptavidin (25 μg) was added to the solutions (25 μL, 0.25 nmol I^1-II, I^2-II or I^3-II) and incubation was performed at 37° C. for 30 min.

[2] = molecular target: T1, M.HhaI; experiment: Methylation-sensitive biotinylation of linearized pUC19 plasmid DNA with M.HhaI (R.HhaI protection, streptavidin mobility shift); format: biochemical, Haemophilus haemolyticus; settings: cofactor 80 μM, 37° C. for 2 h, non- vs CpG-methylated LpUC19
Description: The reaction with aziridine cofactor 1 and M.HhaI was used to specifically detect DNA methylation of plasmid DNA (FIG. 2). Experiments were performed with R.XmnI-linearized plasmid pUC19 DNA (LpUC19). Cytosine residues within the 5′-CG-3′ DNA sequences (CpG-motives) of LpUC19 were methylated using the DNA (cytosine-5)-methyltransferase M.SssI and the natural cofactor AdoMet. Non- and CpG-methylated LpUC19 were treated with biotinylated aziridine cofactor 1 and M.HhaI, which can only alkylate the first cytosine residue within the 5′-GCGC-3′ DNA sequence if this residue is not blocked by methylation of the inner CpG-motive. The different plasmids where then analyzed by treatment with the restriction endo-nuclease R.HhaI (5′-GCGC-3′ recognition sequence) or streptavidin (tight binding to the biotin group) leading to fragmentation, no reaction or an electrophoretic mobility shift (FIG. 2A). […]
Samples (10 μL) of unmodified (A.), methylated (B. or C.) or biotinylated (C.) LpUC19 plasmid DNA (200 ng) in buffer (10 mM Tris hydrochloride, pH 7.9, 10 mM magnesium chloride, 50 mM sodium chloride, 1 mM 1,4-dithiothreitol and 1 mg/mL bovine serum albumin) were incubated with R.HhaI (2 U) at 37° C. for 1 h. DNA fragmentation was analyzed by agarose gel electrophoresis (1% agarose gel). […]

[3] = molecular target: T2, M.SssI (Spiroplasma monobiae, UniProt P15840); experiment: M.SssI-catalysed coupling of aziridine cofactors with duplex oligodeoxynucleotides (anion exchange HPLC); format: biochemical
T2 construct: made in house; host or cells: Escherichia coli
T2 sequence (P15840 whole entry): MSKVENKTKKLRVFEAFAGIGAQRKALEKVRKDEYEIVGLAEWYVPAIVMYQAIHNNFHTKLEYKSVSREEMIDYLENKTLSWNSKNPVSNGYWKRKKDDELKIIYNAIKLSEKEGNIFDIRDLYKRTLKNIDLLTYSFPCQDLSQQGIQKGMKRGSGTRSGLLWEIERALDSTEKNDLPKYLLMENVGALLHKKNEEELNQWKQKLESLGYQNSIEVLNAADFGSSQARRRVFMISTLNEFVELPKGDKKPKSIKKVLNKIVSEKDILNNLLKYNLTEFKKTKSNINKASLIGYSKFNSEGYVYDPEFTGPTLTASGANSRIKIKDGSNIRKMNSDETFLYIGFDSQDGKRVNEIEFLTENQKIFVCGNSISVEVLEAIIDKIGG
Description: M.SssI-mediated conversion of 6BAz was studied by using a duplex-oligodeoxynucleotide and purified DNA-methyl-transferase. After adjusting and optimizing the reaction conditions (pH and composition of the puffers, temperature, amount of M.SssI) 60% of a hemi-methylated duplex-oligodeoxynucleotide was labelled in a 2 h reaction. When unmethylated duplex-oligodeoxynucleotides were used, approximately 100% was labelled. These diverging results may be due to the presence of minor amounts of natural cofactor AdoMet in the enzyme preparation.
Solutions of hemi-methylated duplex oligodeoxynucleotide I-II (1 μM, I=5′-[…]-3′ (SEQ ID NO:1), II=5′-[…]-3′ with M=5-methyl-2′-deoxycytidine (SEQ ID NO:2)) or non-methylated duplex oligodeoxynucleotide I-III (1 μM, I=5′-[…]-3′ (SEQ ID NO:1), III=5′-[…]-3′ (SEQ ID NO:3)), aziridine cofactor 3 (100 μM) and M.SssI (2 μM) in buffer (10 mM Tris hydrochloride, pH 7.4, 50 mM sodium chloride, 10 mM ethylenediaminetetraacetic acid and 2 mM dithiothreitol) were incubated at 21° C. The progress of the coupling reactions was monitored by anion exchange HPLC (Poros 10 HQ, 10 μm, 4.6×100 mm, Applied Biosystems). Compounds were eluted with aqueous potassium chloride (0.2 M for 5 min, followed by linear gradients to 0.5 M in 5 min and to 1 M in 30 min) in Tris hydrochloride buffer (10 mM, pH 7.6) supplemented with sodium azide (1 mM) at a flow of 4 mL/min.

Substance	substrate for M.HhaI [1]	conversion of duplex I-II to coupling product (protein-DNA complex) [1]	labelling reaction of LpUC19 plasmid DNA with M.HhaI [2]	cofactor use by M.SssI (transfer onto DNA) [3]	hemi-methylated duplex-oligodeoxynucleotide labelled ([3]; M.SssI, 2 h reaction, optimized conditions) [%]	unmethylated duplex-oligodeoxynucleotide labelled ([3]; M.SssI, optimized conditions)	conversion of non-methylated duplex I-III to protein-DNA complexes with coupling product ([3]; duplex I-III 1 μM, cofactor 100 μM, M.SssI 2 μM, 21° C., 3 h incubation)	conversion of starting duplex I-II to product duplex I^3-II ([3]; hemi-methylated duplex I-II 1 μM, cofactor 100 μM, M.SssI 2 μM, 21° C., 3 h)	cofactor use by M.SssI (transfer onto DNA) ([3]; listed as 6BAz)
4-Amino-7-(5′-N-aziridinyl-5′-deoxy-β-D-ribofuranosyl)-5-[1″-(N″-biotinyl)-3″-aminoprop-1-ynyl]-7H-pyrrolo[2,3-d]pyrimidine [aziridine cofactor 2]	good substrates	almost complete conversion	–	–	–	–	–	–	–
4-Amino-7-(5′-N-aziridinyl-5′-deoxy-β-D-ribofuranosyl)-5-[1″-(N″-biotinyl)-3″-aminopropyl]-7H-pyrrolo[2,3-d]pyrimidine [aziridine cofactor 1]	good substrates	almost complete conversion	sequence-specific and blocked by CpG-methylation	–	–	–	–	–	–
5′-N-Aziridinyl-N6-[1″-(N″-biotinyl)-4″-aminobutyl]-5′-deoxyadenosine [aziridine cofactor 3]	good substrates	almost complete conversion	–	substrate for M.SssI	60	approximately 100%	almost complete conversion	about 60%	aziridin-cofactor for the DNA-MTase M.SssI
